Results published in patent publication US8258290B2, “Glycomimetic inhibitors of the PA-IL lectin, PA-IIL lectin or both the lectins from pseudomonas” (priority 2005, dated 2012).

Columns and labels:
[1] = biological target: PA-IIL binding to human epithelial cells (Pseudomonas aeruginosa, UniProt Q9HYN5); test: Inhibition of PA-IIL lectin binding to human buccal epithelial cells (flow cytometry); type: cell-based; settings: FIG. 9A-9F, biotinylated PA-IIL, fluorescein-labeled streptavidin, FACS
Procedure: FIG. 9A-9F illustrates the inhibition of PA-IIL binding to human epithelial cells. Human buccal epithelial cells are incubated with biotinylated PA-IIL lectin followed by detection of bound lectin with fluorescein-labeled streptavidin. Fluorescently labeled cells are quantified by fluorescent-activated cell sorting (FIG. 9B).
Obtain sample of buccal cells by scraping inside of cheek and collecting in 2 mis PBS. Spin cells at 400 g for 7 minutes to generate cell pellet. Discard supernatant. Resuspend in cold TBS-Ca (50 mM TrisHCl, 150 mM NaCl, 2 mM CaCl2 pH 7.4) to cell concentration of 10^6 cells/ml. Aliquot 0.1 ml to each tube. Add biotinylated PA-I or PA-II to tubes (5μ/well of 1.0 mg/ml lectin). Add inhibitors to tubes (5 μl at desired concentration). Incubate on ice for 30 minutes. Wash cells once by adding 400 μl of cold TBS-Ca to each tube and spinning at 400 g for 7 minutes. Discard supernatant. Resuspend cells in 100 μl of cold TBS-Ca. Add streptavidin-FITC (2 μl/tube of 1 mg/ml, KPL Labs, Gaithersburg, Md.). Incubate 30 minutes on ice. Wash cells once by adding 400 μl of cold TBS-Ca to each tube and spinning at 400 g for 7 minutes. Discard supernatant. Resuspend cells in 500 μl of cold TBS-Ca. Analyze in flow cytometer.

PA-IIL lectin = biological target: T1, PA-IIL lectin (Pseudomonas aeruginosa, UniProt Q9HYN5); test: Assay for PA-IIL antagonist activity (plate-coated PA-IIL, fucose-PAA-biotin/streptavidin-HRP competition); type: binding; settings: for inhibition of the PA-IIL lectin: FIG. 6
T1 construct: Dr. Wimmerova, Masaryk University, Brno, Czech Republic
Procedure: Wells of a microtiter plate (plate 1) are coated with PA-IIL (Dr. Wimmerova, Masaryk University, Brno, Czech Republic) by incubation for 2 hrs at 37° C. The wells are then blocked for 2 hrs by the addition of 1% bovine serum albumin (BSA) diluted in TBS-Ca (50 mM TrisHCl, 150 mM NaCl, 2 mM CaCl2 pH 7.4) mixed 1:1 v/v with Stabilcoat (Surmodics, Eden Prairie, Minn.). In a second low-binding round-bottom microtiter plate (plate 2), test antagonists are serial diluted in 1% BSA in TBS-Ca/Stabilcoat (60 μl/well). […] Plate 1 is then washed with TBS-Ca and 100 μl/well are transferred from plate 2 to plate 1. After incubation at room temperature for 2 hrs, plate 1 is washed and 100 μl of TMB reagent (KPL Labs, Gaithersburg, Md.) is added to each well. After incubation for 5 minutes at room temperature, the reaction is stopped by adding 100 μl/well of 1M H3PO4 and the absorbance of light at 450 nm is determined by a microtiter plate reader.

PA-IL lectin = biological target: T2, PA-IL lectin (Pseudomonas aeruginosa, UniProt Q05097); test: Assay for PA-IL antagonist activity (plate-coated PA-IL, α-galactose-PAA-biotin/streptavidin-HRP competition); type: binding; settings: for inhibition of PA-IL lectin: FIG. 5
T2 construct: purchased Sigma-Aldrich, St. Louis, Mo
Procedure: Wells of a microtiter plate (plate 1) are coated with PA-IL (Sigma-Aldrich, St. Louis, Mo.) by incubation for 2 hrs at 37° C. The wells are then blocked for 2 hrs by the addition of 1% bovine serum albumin (BSA) diluted in TBS-Ca (50 mM TrisHCl, 150 mM NaCl, 2 mM CaCl2 pH 7.4) mixed 1:1 v/v with Stabilcoat (Surmodics, Eden Prairie, Minn.). In a second low-binding round-bottom microtiter plate (plate 2), test antagonists are serial diluted in 1% BSA in TBS-Ca/Stabilcoat (60 μl/well). Preformed conjugates of α-galactose-PAA-biotin (GlycoTech Corp, Gaithersburg, Md.) mixed with streptavidin-HRP (KPL Labs, Gaithersburg, Md.) are added to each well of plate 2 (60 μl/well of 2 μg/ml). Plate 1 is then washed with TBS-Ca and 100 μl/well are transferred from plate 2 to plate 1. After incubation at room temperature for 2 hrs, plate 1 is washed and 100 μl of TMB reagent (KPL Labs, Gaithersburg, Md.) is added to each well. After incubation for 5 minutes at room temperature, the reaction is stopped by adding 100 μl/well of 1M H3PO4 and the absorbance of light at 450 nm is determined by a microtiter plate reader.

T2 sequence (Q05097 whole entry): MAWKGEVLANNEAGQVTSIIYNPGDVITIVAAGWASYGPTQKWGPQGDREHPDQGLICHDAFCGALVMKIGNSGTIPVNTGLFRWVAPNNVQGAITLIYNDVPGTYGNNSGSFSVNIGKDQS
T1 sequence (Q9HYN5 entry or part of it): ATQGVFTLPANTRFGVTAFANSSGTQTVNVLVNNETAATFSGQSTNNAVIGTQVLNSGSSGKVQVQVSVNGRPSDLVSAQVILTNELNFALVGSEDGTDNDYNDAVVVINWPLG
PA-IIL binding to human epithelial cells, sequence (Q9HYN5 entry or part of it): as above

Compound	inhibition of PA-IIL binding to human epithelial cells [1]	inhibition of the PA-IIL lectin (PA-IIL lectin; qualitative)	inhibition of PA-IIL relative to fucose (from IC50 determination) (PA-IIL lectin; FIG. 8, times better than fucose) [times]	inhibition of PA-IL lectin (PA-IL lectin; qualitative)	inhibition of PA-IL relative to galactose (from IC50 determination) (PA-IL lectin; FIG. 7, times better than galactose) [times]	inhibition of PA-IL in IC50 determination (PA-IL lectin; FIG. 7, qualitative)	inhibition of PA-IIL in IC50 determination (PA-IIL lectin; FIG. 8, qualitative)
CC1OC(OC2C(CO)OCCC2OC2OC(CO)C(O)C(OC3OC(CO)C(O)C(O)C3O)C2O)C(O)C(O)C1O (stereo not drawn) [Glycomimetic 1]	inhibits binding	inhibited	4 to 5	inhibited	4 to 5		
OC[C@H]1O[C@H](OCC2O[C@@H](O)[C@H](O)[C@@H](O)[C@@H]2O)[C@H](O)[C@@H](O)[C@H]1O (stereo partly drawn) [Melibiose, Melibiose (Galα1-6Gal)]				inhibited			
C[C@H](O)[C@@H](O)[C@@H](O)[C@H](O)C=O [fucose]				not		inactive	
O=C[C@H](O)[C@@H](O)[C@@H](O)[C@H](O)CO [galactose]	no effect	not		inhibited			inactive
